Data reported in US20150105252A1, “SUBSTITUTED PYRAZOLES AS HERBICIDES” (E I DU PONT DE NEMOURS AND COMPANY, priority 2013, published 2015).

What was measured:
arrowleaf sida = test: Test F postemergence; assay type: in vivo, Sida rhombifolia; settings: scale 0 to 100
Excerpt: Seeds of plant species selected from corn (Zea mays), soybean (Glycine max), velvetleaf (Abutilon theophrasti), lambsquarters (Chenopodium album), wild poinsettia (Euphorbia heterophylla), pigweed, palmer (palmer pigweed, Amaranthus palmeri), common waterhemp (Amaranthus rudis), surinam grass (Brachiaria decumbens), large crabgrass (Digitaria sanguinalis), crabgrass, Brazil (Brazilian crabgrass, Digitaria horizontalis), fall panicum (Panicum dichotomiflorum), giant foxtail (Setaria faberii), green foxtail (Setaria viridis), goosegrass (Eleusine indica), johnsongrass (Sorghum halepense), common ragweed (Ambrosia elation), barnyardgrass (Echinochloa crus-galli), southern sandbur (Cenchrus echinatus), arrowleaf sida (Sida rhombifolia), Italian ryegrass (Lolium multiflorum), dayflower, VA (Virginia (VA) dayflower, Commelina virginica), field bindweed (Convolvulus arvensis), cocklebur (common cocklebur, Xanthium strumarium), morningglory (Ipomoea coccinea), nightshade (eastern black nightshade, Solanum ptycanthum), kochia (Kochia scoparia), yellow nutsedge (Cyperus esculentus), and hairy beggarticks (Bidens pilosa), were planted into a silt loam soil and treated preemergence with test chemicals formulated in a non-phytotoxic solvent mixture which included a surfactant.
At the same time, plants from these crop and weed species and also horseweed (Canada horseweed, Conyza canadensis), smartweed (ladysthumb smartweed, Polygonum persicaria), waterhemp_RES1, (ALS & Triazine resistant common waterhemp, Amaranthus rudis), and waterhemp_RES2, (ALS & HPPD resistant common waterhemp, Amaranthus rudis) were treated with postemergence applications of test chemicals formulated in the same manner. Plants ranged in height from 2 to 18 cm for postemergence treatments (1- to 4-leaf stage). Treated plants and controls were maintained in a greenhouse for 14 to 21 days, after which time all species were compared to controls and visually evaluated. Plant response ratings, summarized in Table F, are based on a scale of 0 to 100 where 0 is no effect and 100 is complete control. A dash (-) response means no test result.

crabgrass, large = test: Test E preemergence; assay type: in vivo, Digitaria sanguinalis; settings: 21 days, scale 0 to 100
Excerpt: Seeds of plant species selected from bermudagrass (Cynodon dactylon), Surinam grass (Brachiaria decumbens), crabgrass, large (large crabgrass, Digitaria sanguinalis), crabgrass, naked (naked crabgrass, Digitaria nuda), foxtail, green (green foxtail, Setaria viridis), johnsongrass (Sorghum halepense), kochia (Kochia scoparia), morningglory (pitted morningglory, Ipomoea lacunosa), nutsedge, purple (purple nutsedge, Cyperus rotundus), ragweed (common ragweed, Ambrosia elation), mustard, black (black mustard, Brassica nigra), guineagrass (Panicum maximum), dallisgrass (Paspalum dilatatum), barnyardgrass (Echinochloa crus-galli), sandbur (southern sandbur, Cenchrus echinatus), sowthistle (common sowthistle, Sonchus oleraceous), ryegrass, Italian (Italian ryegrass, Lolium multiflorum), signalgrass (broadleaf signalgrass, Brachiaria platyphylla), dayflower, VA (Virginia (VA) dayflower, Commelina virginica), bluegrass (annual bluegrass, Poa annua), quackgrass (Elytrigia repens), mallow (common mallow, Malva sylvestris), buckwheat, wild (wild buckwheat, Polygonum convolvulus), leafy spurge (Euphorbia esula), common chickweed (Stellaria media), wild poinsettia (Euphorbia heterophylla), pigweed, palmer (palmer pigweed, Amaranthus palmeri), and pigweed (redroot pigweed, Amaranthus retroflexus) were planted into a blend of loam soil and sand and treated preemergence with test chemicals formulated in a non-phytotoxic solvent mixture which included a surfactant.
Treated plants and controls were maintained in a greenhouse for 21 days, after which time all species were compared to controls and visually evaluated. Plant response ratings, summarized in Table E, are based on a scale of 0 to 100 where 0 is no effect and 100 is complete control. A dash (-) response means no test result.

common ragweed = test: Test A preemergence; assay type: in vivo, Ambrosia elation
Method in brief: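 Seeds were sown in a loam soil–sand blend and given a directed soil spray preemergence; postemergence plants at 2–10 cm, one- to two-leaf stage, were sprayed with compound in non-phytotoxic solvent with surfactant. After about 10 days in a greenhouse, injury was visually rated against untreated controls (0 = no effect, 100 = complete control).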

oat, wild = test: Test D preemergence; assay type: in vivo, Avena fatua; settings: scale 0 to 100
Excerpt: Seeds of plant species selected from bluegrass (annual bluegrass, Poa annua), blackgrass (Alopecurus myosuroides), canarygrass (littleseed canarygrass, Phalaris minor), chickweed (common chickweed, Stellaria media), galium (catchweed bedstraw, Galium aparine), bromegrass, downy (downy bromegrass, Bromus tectorum), field poppy (Papaver rhoeas), field violet (Viola arvensis), foxtail, green (green foxtail, Setaria viridis), deadnettle (henbit deadnettle, Lamium amplexicaule), ryegrass, Italian (Italian ryegrass, Lolium multiflorum), kochia (Kochia scoparia), lambsquarters (Chenopodium album), oilseed rape (Brassica napus), pigweed (redroot pigweed, Amaranthus retroflexus), chamomile (scentless chamomile, Matricaria inodora), speedwell (bird's-eye speedwell, Veronica persica), barley, spring (spring barley, Hordeum vulgare), wheat, spring (spring wheat, Triticum aestivum), buckwheat, wild (wild buckwheat, Polygonum convolvulus), mustard, wild (wild mustard, Sinapis arvensis), oat, wild (wild oat, Avena fatua), radish, wild (wild radish, Raphanus raphanistrum), windgrass (Apera spica-venti), Russian thistle (Salsola kali), barley, winter (winter barley, Hordeum vulgare), and wheat, winter (winter wheat, Triticum aestivum) were planted into a silt loam soil and treated preemergence with test chemicals formulated in a non-phytotoxic solvent mixture which included a surfactant.
At the same time, these species were planted in pots containing Redi-Earth® planting medium (Scotts Company, 14111 Scottslawn Road, Marysville, Ohio 43041) comprising spaghnum peat moss, vermiculite, wetting agent and starter nutrients and treated with postemergence applications of the test chemicals formulated in the same manner. Plants ranged in height from 2 to 18 cm (1- to 4-leaf stage). Treated plants and controls were maintained in a controlled growth environment for 14 to 21 days after which time all species were compared to controls and visually evaluated. Plant response ratings, summarized in Table D, are based on a scale of 0 to 100 where 0 is no effect and 100 is complete control. A dash (-) response means no test result.

[1] = 125 g ai/ha, visual injury, 0 to 100 scale, approx. 10 days
[2] = 500 g ai/ha, visual injury after approx. 10 days, 0 to 100 scale (0 no effect, 100 complete control)

| SMILES | Plant response rating, Arrowleaf Sida (arrowleaf sida; Postemergence, 31 g ai/ha) | Plant response rating, Arrowleaf Sida (arrowleaf sida; Postemergence, 125 g ai/ha) | Plant response rating, Arrowleaf Sida (arrowleaf sida; Postemergence, 250 g ai/ha) | Plant response rating, Arrowleaf Sida (arrowleaf sida; postemergence, 62 g ai/ha) | Plant response rating, Arrowleaf Sida (arrowleaf sida; postemergence, 500 g ai/ha) | Plant response rating, Crabgrass, Large (crabgrass, large; 16 g ai/ha) | Plant response rating, Crabgrass, Large (crabgrass, large; 31 g ai/ha) | Plant response rating, Crabgrass, Large (crabgrass, large; 62 g ai/ha) | Plant response rating, Crabgrass, Large (crabgrass, large; 125 g ai/ha) | Plant response rating, Crabgrass, Large (crabgrass, large; 250 g ai/ha) | Common Ragweed plant response rating (common ragweed; [2]) | Plant response rating, Oat, Wild (oat, wild; 62 g ai/ha) | Plant response rating, Oat, Wild (oat, wild; 125 g ai/ha) | Plant response rating, Oat, Wild (oat, wild; 250 g ai/ha) | also measured |
| --- | --- | --- | --- | --- | --- | --- | --- | --- | --- | --- | --- | --- | --- | --- | --- |
| CCc1cc(C(=O)NCC(F)(F)F)nn1Cc1ccnc(C(F)(F)F)c1 [Compound 78, 5-ethyl-N-(2,2,2-trifluoroethyl)-1-[[(2-trifluoromethyl)-4-pyridinyl]methyl]-1H-pyrazole-3-carboxamide] | 50 | 75 | 80 | 60 | 95 | 90 | 100 | 100 | 100 | 100 |  |  |  |  |  |
| CCc1cc(C(=O)NC(C)C)nn1Cc1ccnc(C(F)(F)F)c1 [Compound 103] |  |  |  |  |  | 100 | 100 | 100 | 100 | 100 |  |  |  |  |  |
| CCOc1cc(C(=O)NCC(F)(F)F)nn1Cc1ccnc(C(F)(F)F)c1 [Compound 104] | 55 | 70 | 80 | 60 | 95 | 100 | 100 | 100 | 100 | 100 |  |  |  |  |  |
| CCCc1cc(C(=O)NCC(F)(F)F)nn1Cc1ccnc(C(F)(F)F)c1 [Compound 105] | 40 | 60 | 80 | 50 | 90 | 98 | 100 | 100 | 100 | 100 |  |  |  |  |  |
| CCONC(=O)c1cc(CC)n(Cc2cc(C(F)(F)F)no2)n1 [Compound 125] |  |  |  |  |  |  |  |  |  |  | 90 |  |  |  | Common Ragweed plant response rating (common ragweed; [1]): 50 |
| CCOc1cc(C(=O)NC2CC2)nn1Cc1ccnc(OC(F)F)c1 [Compound 133] |  |  |  |  |  |  |  |  |  |  | 90 |  |  |  | Common Ragweed plant response rating (common ragweed; [1]): 80 |
| CCCc1cc(C(=O)NCC(F)(F)F)nn1Cc1cc(C(F)(F)F)nn1C [Compound 138] |  |  |  |  |  |  |  |  |  |  |  | 35 | 75 | 100 |  |
| CCOc1cc(C(=O)NC(C)C)nn1Cc1ccnc(C(F)(F)F)c1 [Compound 188] | 50 | 60 | 70 | 50 | 80 |  |  |  |  |  |  | 100 | 100 | 100 |  |
| CCOc1cc(C(=O)NC2CC2)nn1Cc1ccnc(C(F)(F)F)c1 [Compound 189] |  |  |  |  |  | 100 | 100 | 100 |  |  |  | 45 | 75 | 100 | Plant response rating, Crabgrass, Large (crabgrass, large; 4 g ai/ha): 0; Plant response rating, Crabgrass, Large (crabgrass, large; 8 g ai/ha): 95 |
| CCc1cc(C(=O)NCC(F)(F)F)nn1Cc1cc(OC(F)F)nn1C [Compound 206] |  |  |  |  |  |  |  |  |  |  | 40 |  |  |  | Common Ragweed plant response rating (0 to 100 scale) (common ragweed; 125 g ai/ha, visual injury approx. 10 days after treatment): 0 |
